Reference: article PMC13401508 (Pharmacological research, 2026)

Tests used:
YAP = test: Western blot, PDGF-AA activated HS5 cells: YAP; type: cell-based, human; details: PDGF-AA 10 ng/ML, 25 μM, 24 hrs
[1] = system: Salmonella typhimurium TA98 & TA100; test: Mini-Ames assay; type: cell-based; details: with or without S9 mix
Experimental: The mini-AMES assay was performed in Pharmaron, Inc. following the standard protocol as developed by the in-house scientist. […] The assay was conducted in the presence or absence of the S9 mix along with concurrent negative/solvent control and positive controls.

[2] = system: PC3-ML, ARCaP-M, C4–2B, RM1-BM and TRAMP-C2 cells; test: Boyden chamber / Transwell Matrigel invasion assay; type: cell-based, human and murine; details: 25 μM, 18 hrs, all five cell lines
Experimental: Boyden chamber assays were performed using Corning® BioCoat® Matrigel® Invasion Chambers obtained from Corning Inc., USA. In brief, cells were seeded on the Matrigel-coated upper chamber and treated with IVMT-Rx-4. Invaded cells were fixed, stained and counted after 18 hrs. as previously described.
Fig. 1. Primary characterization of IVMT-Rx-4. A) Chemical structure (upper panel) and synthesis scheme (lower panel). […] All proteins were extracted, and Western blotting was performed immediately after heating. Quantifications were obtained in the absence (control) or presence of IVMT-Rx-4 and values are presented as percentage of RT (room temperature) normalized for the experimental groups (control, IVMT-Rx-4). SOD (Superoxide dismutase) was used as an endogenous control. […] Colonies were stained with crystal violet and counted (n = 3 ± SD; ns: non-significant). […] Invaded cells were stained with crystal violet. Top panel: representative photograph of invaded cells under different experimental settings. Bottom panel: graphical representation of number of invaded cells/field for different cell lines (n = 3 ± SD; * p < 0.05).

[3] = Solubility study in bio-relevant media, buffers and solvents; type: physicochemical
RM1-BM-Luc cells = test: Experimental bone metastasis, intracardiac RM1-BM-Luc; type: in vivo, C57BL/6 mice
Experimental: For experimental bone metastasis experiments, 3 × 10^4 RM1-BM-Luc cells were injected by the intracardiac route to develop bone-metastases in 6- to 8-week-old male C57BL/6 mice as described previously. Incidence of metastasis was monitored using Bioluminescence imaging, as described previously.
Fig. 4. […] RM1-BM-Luc cells were injected through the intracardiac (I.C.) route into C57BL/6 mice to establish experimental bone metastases. […] A) BLI imaging was performed on day 15 and the number of bone metastasis positive mice were graphically represented as metastatic events. B) Calculated ROI values are graphically represented (n = 6 ± SEM; * p < 0.05). C) Ex vivo BLI image of representative bones from both vehicle and IVMT-Rx-4 treated animals. D) Representative ex vivo images and (E) number of animals positive for metastases in the lungs, liver, brain and spleen for each experimental group ae presented.

[4] = Particle size distribution (PSD); type: physicochemical; details: wet method, water
Experimental: About 15 mg of sample was pre-dispersed using 1 mL of water. After mixing completely, PSD was analyzed with the parameters in Table below.

Caco-2 cell monolayer = test: Caco-2 bidirectional permeability; type: in vitro ADME; details: 10 µM
Experimental: To prepare the Caco-2 cell monolayer, 50 µL and 25 µL of cell culture medium (Dulbecco’s modified Eagle’s medium, DMEM) were added to each well of the inserts and reservoir, respectively, within a 96-well HTS Transwell plate (Corning, NY, USA). The plate was incubated at 37 °C and 5% CO2 for 1 hr. prior to cell seeding. Caco-2 cells were then diluted to 6.86 x 10^5 cells/mL using culture medium and 50 µL of cell suspension were seeded into the plate, and incubated at 37 °C, 5% CO2, and 95% relative humidity for 14-18 days. During this time, the cells were cultivated with media replacements occurring every other day. Cells were allowed to grow and differentiate and the integrity of the Caco-2 cell monolayer was evaluated by measurement of transepithelial electrical resistance (TEER) using a Millicell Epithelial Volt-Ohm measuring system (Millipore, USA).
Prior to the assay, the established monolayer was washed twice with pre-warmed HBSS and incubated at 37 °C for 30 minutes. A bidirectional permeability assay was performed simultaneously using two different plates as described previously (Supplementary Reference: Cui Y, Desevaux C, Truebenbach I, Sieger P, Klinder K, Long A, Sauer A. A Bidirectional Permeability Assay for beyond Rule of 5 Compounds. Pharmaceutics. 2021 Jul 27;13(8):1146. doi: 10.3390/pharmaceutics13081146. PMID: 34452112; PMCID: PMC8400635.): one assessed permeability from the apical to the basolateral side, while the other assessed from the basolateral to the apical side. […] For apical to basolateral permeability, 108 µL of working solution was loaded into the apical compartment, whereas 308 µL of working solution was added to the basolateral compartment for basolateral to apical permeability. The samples collected from donor and receiver compartment were mixed with 72 µL transport buffer and 240 µL of acetonitrile containing internal standard (IS, 100 nM alprazolam, 200 nM Caffeine and 100 nM tolbutamide), centrifuged at 1000 rpm for 10 minutes. […] In doing so, the following equations were used: […]
Where, Papp is apparent permeability (cm/s x 10^-6), dQ/dt is the rate of drug transport (pmol/second), A is the surface area of the membrane (cm^2), and D0 is the initial donor concentration (nM; pmol/cm^3). (B-A) indicates basolateral to apical permeation, where (A-B) indicates apical to basolateral.

[5] = Log D by shake flask (pH 7.4); type: physicochemical; details: pH 7.4, octanol/phosphate buffer
Experimental: Sodium Phosphate buffer pH 7.4 (10 mM) was used as the aqueous phase and octanol was used as the organic phase. […] The sealed plate was incubated at 25 °C with continuous agitation at 2000 rpm for 2 hrs. Samples were then separated by centrifugation, diluted 100-fold with a mixture of H20 and acetonitrile containing internal standard, and analyzed via LC-MS/MS. The Log D value was calculated using the following equation: […]

[6] = tumor-bearing animals, 30 mg/kg I.P., vs DMSO

SMILES: Cc1cc(NC(=O)CCc2nnc(-c3ccccc3)o2)c(C)cc1N [IVMT-Rx-4]
- phosphorylation of YAP at ser127 (YAP): promoted
- cytotoxicity to tester strains in Mini-Ames assay ([1]; 1.5 to 1000 μg/well): No obvious cytotoxicity
- Mini-Ames Assay (2-strain option: TA98 & TA100) [1]: Weakly positive for 2 strains
- cellular invasion [2]: effectively suppressed cellular invasion
- solubility in FaSSIF, FeSSIF and SIF ([3]; FaSSIF, FeSSIF and SIF): low solubility
- solubility in organic solvents ([3]; MeOH, EtOH, CH2Cl2, Acetone and MeCN): relatively good solubility
- solubility in SGF ([3]; SGF): relative high solubility
- stability in SGF and pH 1.2 buffer ([3]; after the solubility test, both media): degradation was observed
- solubility in hexane ([3]; hexane): almost insoluble
- pH dependence of solubility ([3]; solubility increased with a decrease of pH): pH dependent
- solubility in water ([3]; water): low solubility
- animals with bone metastases (RM1-BM-Luc cells; 30 mg/kg I.P. 3X a week for two weeks, fourteen days post-intracardiac injection, BLI): 0 out of 6
- Ex Vivo Imaging; Positive for tumor cells (n=6) Brain (RM1-BM-Luc cells; 30 mg/kg I.P., 6 doses): 0
- Ex Vivo Imaging; Positive for tumor cells (n=6) Liver (RM1-BM-Luc cells; 30 mg/kg I.P., 6 doses): 2
- Ex Vivo Imaging; Positive for tumor cells (n=6) Lungs (RM1-BM-Luc cells; 30 mg/kg I.P., 6 doses): 6
- Ex Vivo Imaging; Positive for tumor cells (n=6) Spleen (RM1-BM-Luc cells; 30 mg/kg I.P., 6 doses): 0
- metastasis to the liver, brain and spleen, as well as to the bones (RM1-BM-Luc cells; 30 mg/kg I.P., ex-vivo imaging): partially prevented metastasis
- CXCL5 in the serum of mice (RM1-BM-Luc cells; [6]): reduced expression
- PDGF-AA in the serum of mice (RM1-BM-Luc cells; [6]): reduced expression
- Dv [90], average value [4]: 58.6 μm
- Caco-2 Bidirectional A-B (Caco-2 cell monolayer; apical to basolateral): 21.5 ×10⁻⁶ cm/s
- Caco-2 Bidirectional B-A (Caco-2 cell monolayer; basolateral to apical): 19.9 ×10⁻⁶ cm/s
- logD at 2 h [5]: 1.49
